# “And” between values parts separate entries of the source, which are not always exact repeats. Equal values may be shown once.
# Key:
# [1] = tested on: Panc-1 human pancreas tumors; test: Panc-1 mouse xenograft tumor growth (Example 1); format: in vivo; conditions: for tumor growth inhibition: Panc-1 xenograft in female nude mice, FK228 IV Q4Dx3, gemcitabine IP Q3Dx4, vs vehicle control
# Procedure: In this study, female nude mice were implanted subcutaneously (SC) by trocar with Panc-1 tumor fragments harvested from SC growing tumors in nude mice hosts. […] The day of treatment initiation was specified as Day 1. Vehicle control and FK228 were administered intravenously on a Q4Dx3 schedule (Days 1, 5, and 9). Gemcitabine was administered by an intraperitoneal injection on a Q3Dx4 schedule (Days 1, 4, 7, 10). Tumors were measured by Vernier calipers twice weekly.
# [2] = PANC-1 study: animal weight and drug toxicity
# Text: Model Information—Female nude mice (nu/nu) between 5 and 6 weeks of age weighing approximately 20 grams were obtained from Harlan, Inc. (Madison, Wis.). PANC-1, obtained from the ATCC, is a pancreas tumor cell line originating from a person^(1-2). BxPC-3, obtained from the American Type Culture Collection (ATCC), is a pancreas tumor cell line originating from a person^(3-4). PANC-1 Study: Animals were implanted subcutaneously (SC) by trocar with fragments of PANC-1 harvested from SC growing tumors in nude mice hosts. When tumors grew to approximately 135 cubic millimeters (mm^3) in size (17 days following implantation, animals were pair-matched by tumor size into treatment and control groups; each treatment group contained nine mice. BxPC-3 Study: Animals were implanted subcutaneously (SC) by trocar with fragments of BxPC-3 harvested from SC growing tumors in nude mice hosts. When tumors grew to approximately 85 cubic millimeters (mm^3) in size (19 days following implantation), animals were pair-matched by tumor size into treatment and control groups; each treatment group contained nine mice. Animals in both studies were ear-tagged and followed individually throughout the experiment.
# Study Design and Dosing—Initial doses were administered on Day 1 following pair-matching; both experiments were carried out as tumor growth inhibition (TGT) studies. Animals were dosed intravenously (IV) via tail vein with FK228 once every four days for three treatments (Q4Dx3) or by intraperitoneal (IP) injection with gemcitabine once every three days for four treatments (Q3Dx4), either alone or in combination, at the doses listed below (Table 1). To serve as a negative control, FK228 vehicle (2% ethanol, 8% propylene glycol, 90% 0.9% saline) was injected on a Q4Dx3 schedule.
# Animal Weights—Individual and group mean weights ±SD and percent weight change through Day 25 (PANC-1) or Day 29 (BxPC-3) were recorded twice weekly until study completion beginning Day 1. Final group mean weights ±SD and group nadir values are reported; weight data from individual animals experiencing technical or drug-related deaths was censored from final group calculations.
# Moribundity/Mortality—Animals were observed twice weekly for general moribundity and daily for mortality. Animal deaths were assessed as drug-related or technical based on factors including gross observation and weight loss; reported animal death information includes type, number, and day of death for each group.
# Statistics—Statistical analyses were carried out between treated and control groups comparing final weight, percent weight change, and tumor growth inhibition (Appendix III). For these groups, a two-tailed One-Way Analysis of Variance (ANOVA) followed by the Dunnett multiple comparisons test was employed. All analyses are performed using GraphPad Prism® software (version 4.0). Weight and tumor data from individual animals experiencing technical or drug-related deaths was censored from analysis.
# acetylated histone 3 = test: Immunoblot of acetylated histone 3 in PANC-1 xenograft tumors; format: in vivo, human; conditions: FK228 5 mg/kg Q4Dx3; gemcitabine 80 mg/kg Q3Dx4; tumors at study completion; vs controls
# Procedure: Abstract: To examine activity and mechanism of FK228, antitumor efficacy was tested in PANC-1 pancreatic adenocarcinoma model representing transformed Ras, either as a single agent or in combination with gemcitabine. Following PANC-1 study completion, tumor and sera were obtained from: • the vehicle control; • FK228 dosed at 5 mg/kg once every four days for three treatments (Q4Dx3); • Gemcitabine at 80 mg/kg (Q3Dx4); and • the drug combination. Expression of c-Myc, acetylated histones 3 and 4, and p21^waf1 was compared between control and FK228 groups by immunoblotting and was quantified following actin normalization. Serum levels of putative tumor products b-FGF and MMP-2 were quantified by human-specific ELISA. […]
# Tissue Biomarkers: Tumor levels of acetylated histone-4, histone-4, c-Myc, p21waf and β-actin were quantified by immunoblotting as described. […] The chemiluminescence signal was captured by autoradiography, quantified by densitometry and expressed as a ratio of actin in each sample lane. For each biomarker, means and standard errors were calculated in each treatment group. […]
# Expression of c-Myc, acetylated histones 3 and 4, and p21^waf1 was compared between control and FK228 groups by immunoblotting and was quantified following actin normalization. Serum levels of putative tumor products b-FGF and MMP-2 were quantified by human-specific ELISA. […]
# [3] = FK228 2.5 mg/kg IV Q4Dx3, 2.5 mg/kg
# [4] = FK228 5 mg/kg IV Q4Dx3, 5 mg/kg
smiles,measurement,setting,value
"C/C=C1\NC(=O)[C@H]2CSSCC/C=C/[C@H](CC(=O)N[C@H](C(C)C)C(=O)N2)OC(=O)[C@H](C(C)C)NC1=O [FK228, romidepsin]",tumor growth inhibition,[1],26%
same,FINAL WEIGHT (DAY 25) % CHANGE,[2]; FK228 2.5 mg/kg IV Q4Dx3,+8%
same,WEIGHT NADIR % CHANGE,[2]; FK228 2.5 mg/kg IV Q4Dx3,−9%
same,WEIGHT NADIR DAY,[2]; FK228 2.5 mg/kg IV Q4Dx3,11
same,DRUG DEATHS TOTAL,[2]; [3],0/9 and 0
same,FINAL WEIGHT (DAY 25) MEAN(G) ± SD,[2]; [3],21 ± 2 G
same,FINAL WEIGHT (DAY 25) % CHANGE,[2]; FK228 5 mg/kg IV Q4Dx3,+9%
same,WEIGHT NADIR % CHANGE,[2]; FK228 5 mg/kg IV Q4Dx3,−12%
same,WEIGHT NADIR DAY,[2]; FK228 5 mg/kg IV Q4Dx3,11
same,DRUG DEATHS TOTAL,[2]; [4],0/9 and 0
same,FINAL WEIGHT (DAY 25) MEAN(G) ± SD,[2]; [4],25±2 G
same,acetylation of histone 3,acetylated histone 3,not affected
"Nc1ccn([C@@H]2O[C@H](CO)[C@@H](O)C2(F)F)c(=O)n1 [Gemcitabine, gemcitabine]",tumor growth inhibition,[1],50%
same,animals with tumor regression,"[1]; Panc-1 xenograft, N=9 mice per group",no regression
same,DRUG DEATHS TOTAL,[2]; Gemcitabine 40 mg/kg IP Q3Dx4,0/9 and 0
same,FINAL WEIGHT (DAY 25) % CHANGE,[2]; Gemcitabine 40 mg/kg IP Q3Dx4,+7%
same,FINAL WEIGHT (DAY 25) MEAN(G) ± SD,[2]; Gemcitabine 40 mg/kg IP Q3Dx4,24±1 G
same,WEIGHT NADIR % CHANGE,[2]; Gemcitabine 40 mg/kg IP Q3Dx4,−2%
same,WEIGHT NADIR DAY,[2]; Gemcitabine 40 mg/kg IP Q3Dx4,11
same,DRUG DEATHS TOTAL,[2]; Gemcitabine 80 mg/kg IP Q3Dx4,0/9 and 0
same,FINAL WEIGHT (DAY 25) % CHANGE,[2]; Gemcitabine 80 mg/kg IP Q3Dx4,+12%
same,FINAL WEIGHT (DAY 25) MEAN(G) ± SD,[2]; Gemcitabine 80 mg/kg IP Q3Dx4,26±3 G
same,WEIGHT NADIR % CHANGE,[2]; Gemcitabine 80 mg/kg IP Q3Dx4,−3%
same,WEIGHT NADIR DAY,[2]; Gemcitabine 80 mg/kg IP Q3Dx4,11
same,acetylation of histone 3,acetylated histone 3,significantly inhibited

# From US20100137239A1, “GEMCITABINE COMBINATION THERAPY” (GLOUCESTER PHARMACEUTICALS, priority 2006, published 2010)
